Test results: the METLIN SMRT retention time set (Domingo-Almenara et al. 2019)

Assay: gradient 5% acetonitrile 3 min, to 50% in 2 min, to 85% in 15 min, held 3 min, 100 µL/min
Settings: column: Zorbax Extend-C18 2.1 x 50 mm; eluents: water / acetonitrile, 0.1% formic acid
Method in brief: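 In both positive and negative ionization mode, a quadrupole time-of-flight mass spectrometer coupled to HPLC analyzed pure standards run in mixtures of ~100 molecules. The Zorbax Extend-C18 column (2.1 × 50 mm, 1.8 μm) was operated at 100 μL/min with water and acetonitrile, each containing 0.1% formic acid. The dead volume was 40 μL and the dwell volume 900 μL. Retention time came from adduct peaks that were computationally picked and individually inspected by hand.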

Structure (SMILES)	RP-LC retention time [s]
CS(=O)(=O)N1CCC(Cc2ccc(C(=O)O)cc2)CC1	728
COc1ccccc1CNC(=O)C1(c2ccc(NC(C)=O)cc2)CCC1	736
O=S(=O)(c1ccc(-c2cnc(C3CCCC3)o2)s1)N1CCN(c2ncccn2)CC1	1120
COCCCNC(=O)CCC(=O)N1CCCn2nc(-c3cn(C)c4ccccc34)cc21	670
CCCn1c(=O)sc2cc(S(=O)(=O)N3CCC(C(=O)Nc4ccc(C)cc4)CC3)ccc21	1010
O=C(Cn1c(=O)c2cccn2c2ccc(F)cc21)NCCN1CCCCCC1	623
CSc1ccc(CNC(=O)CCc2c(-c3ccc(Br)cc3)nc3ccccn23)cc1	714
O=S(=O)(c1cccc2cccnc12)N1CCc2ccccc2C1	876
CC(C)CCNC(=O)C1CCN(S(=O)(=O)c2ccc3c(c2)sc(=O)n3C)CC1	832
Fc1ccccc1-c1nc2ccn(Cc3ccc(-c4ccc(C(F)(F)F)cc4C(F)(F)F)nn3)cc-2n1	849
O=C(O)c1ccc(S(=O)(=O)N2CCc3ccccc3C2)cc1	773
Cc1cc(C)c(NS(=O)(=O)c2cc(-c3nc(C)c(C)s3)sc2C)c(C)c1	1260
COc1ccccc1-c1c(C(F)(F)F)oc2cc(OC(=O)C3CC3)ccc2c1=O	1080
COc1ccc(-c2c(C(=O)Nc3ccc(C(C)=O)cc3)nc3ccccn23)cc1	939
Cn1cc(C(=O)N2CC(n3cc(COc4ccc(F)cc4)nn3)C2)cn1	641
Cn1cnc2c(C(=O)Nc3ccccc3)nn(-c3ccccc3)c2c1=O	835
COc1cccc(-c2noc(C3CCCN3C(=O)c3ccc(C)s3)n2)c1 (stereo not drawn)	997
CCc1nn(C)c(=O)c2cc(S(=O)(=O)NCc3ccc(F)cc3Cl)cn12	916
Nc1cc(C2CCN(C(=O)Nc3ccccc3F)CC2)no1	649
O=C(Cc1nnc(-c2ccc3ncccc3c2)o1)Nc1cccc(Cl)c1	768
CCn1cc(-c2nc(C)c(C(=O)Nc3cc(F)cc(F)c3)s2)c2cccnc21	1120
Cc1ccc(C(=O)Nc2nc(C)cc(C)c2-c2noc(C)n2)cc1	743

Structure (SMILES)	RP-LC retention time [s]
COc1cccc(NC(=O)N2CCC(OC3CCN(S(C)(=O)=O)CC3)CC2)c1	731
Cc1coc2cc3oc(=O)c(CC(=O)N4CCC(C(N)=O)CC4)c(C)c3cc12	654
CCCN1CCN(C(=O)CSc2nccnc2Sc2ccccc2)CC1	662
Cc1ccc(C(C)NC(=O)C2CCCN(c3nc4c(s3)c(C)nn4-c3ccc(F)cc3)C2)cc1 (stereo not drawn)	1230
CCOC(=O)N1CCN(C(=O)C2CCCN(c3ccc(-c4ccc(C)c(C)c4)nn3)C2)CC1 (stereo not drawn)	715
CCOCCCNC(=O)c1ccc(-c2ccc(N3CCCC3)nn2)cc1	558
CC(=O)Nc1c(C)nn(-c2ccccc2)c1N1CCC(C(=O)NCCCN2CCCC2=O)CC1	605
Cc1nn(-c2ccccc2)c2c1N(CC(=O)NCCC(C)C)C(=O)CS2	821
CC(=O)Nc1ccc(C(=O)NC2CCN(c3cc(N4CCCC4)cnn3)C2)cc1 (stereo not drawn)	598
Cn1nnc2ccc(-c3noc(-c4cccc(F)c4)n3)cc21	1010
COc1cc(OC)c(NC(=O)c2ncoc2-c2ccc(OC)c(OC)c2)cc1Cl	1140
COc1ccc(NC(=O)N2CCC3(CC2)NC(=O)c2cc(Cl)ccc2N3C)cc1	753
CNC(=O)[C@@H]1CN(C(=O)c2ccn(C)n2)C[C@H]1COC	535
CSc1nc2c(c(=O)n1-c1ccc([N+](=O)[O-])cc1)SCC2	816
Cc1cc2c(cc1C(=O)NCc1cccs1)OCCCO2	804
Cc1ccc(NS(=O)(=O)c2cc3c4c(c2)CCC(=O)N4CCC3)c(C)c1	840
CCOc1ccc(-c2nc(C3CC(=O)N(c4ccc(C)cc4)C3)no2)cc1OCC (stereo not drawn)	1090
Cc1ccc(CNC(=O)N2CCN(CCn3c(C(F)(F)F)nc4cccnc43)CC2)cc1	661
CC(C)C(=O)Nc1ccc(C2(C(=O)NCc3ccco3)CCCCC2)cc1	889
Cc1ccc(F)c(-n2nnc(C(=O)O)c2C)c1	689
CC1=C(c2ccc(C)c(C)c2)S(=O)(=O)N=C1N1CCCN(C(=O)NC(C)(C)C)CC1	888
Cc1ccc(-c2cc(C(=O)NCCCN3CCc4ccccc4C3)c(C)[nH]2)cc1C	751

Structure (SMILES)	RP-LC retention time [s]
Cn1cc2c3c(cccc31)CN(C(=O)Cc1ccccc1F)CC2	954
O=C(c1cc(-c2ccncc2)n[nH]1)N1CCC(C(=O)N2CCN(c3ccc(Cl)cc3)CC2)CC1	672
O=C(Cc1nnc(-c2cnccn2)o1)NCc1ccc(Cl)cc1	698
Cc1ccc(S(=O)(=O)N2CCC(n3cnnc3C3CC3)CC2)cc1Cl	809
NC1CC1c1ccccc1 (stereo not drawn)	621
CCOC(=O)c1sc(NC(=O)COc2ccc(Cl)cc2)nc1C	970
CCCn1cnc2ccc(-c3noc(CNS(=O)(=O)c4ccccc4)n3)cc21	682
CCc1nc2cc(N3CCC(C(=O)NC4CCCC4)CC3)cnc2nc1CC	785
C=CCNC(=O)c1nc(C(=O)N2CCc3ccccc3C2)cs1	811
O=C(c1ccccc1)N1CCc2sc(C(=O)N3CCN(c4ccccn4)CC3)cc2C1	608
CCN1CCN(C(=O)c2nc(N3CCSCC3)c3cnn(C)c3n2)CC1	604
Cc1c(-c2ccnc(N3CCN(Cc4ccccc4)CC3)n2)cnc2nc(-c3ccccc3)nn12	713
CC1CCC(NC(=O)c2nnc(-c3ccc(S(=O)(=O)N4CCOCC4)cc3)o2)CC1 (stereo not drawn)	917
Cc1cccc(-n2c(=O)c3c(cc(C)n3C)n(CC(=O)Nc3ccc(F)c(Cl)c3)c2=O)c1	940
COc1cccc(CNC(=O)c2cc3c(-c4cccs4)nn(-c4ccccc4)c3n2C)c1	1120
CC(C)CNC(=O)CCn1c(=O)c2ccccc2n2c(=O)n(Cc3ccccc3)nc12	882
Cc1nc(S(=O)(=O)N2CCC(C(=O)NCc3ccc(Cl)cc3)CC2)cn1C	709
Cc1ccccc1-c1noc(N2CCC(C(=O)N3CCN(C4CCCCC4)CC3)CC2)n1	705
CC1CN(C2CCCCC2)c2nc3c(c(=O)n(CCN4CCOCC4)c(=O)n3C)n2C1 (stereo not drawn)	662
CCCN(CC1CCOC1)S(=O)(=O)Cc1ccccc1Cl (stereo not drawn)	930
Cc1cc(Cl)ccc1N1C(=O)CN(S(C)(=O)=O)CC1(C)C(=O)NCc1ccc(F)cc1 (stereo not drawn)	888
COc1cccc(NC(=O)c2c(O)c3cccnc3n(-c3ccc(F)cc3)c2=O)c1	1200

Structure (SMILES)	RP-LC retention time [s]
COc1ccc(Cl)cc1N(C)C(=O)C1CCCN(c2ncnc3c2nc2n3CCCCC2)C1 (stereo not drawn)	871
CCCNC(=O)C1CCN(c2ccc(SCC(=O)Nc3cccc(Cl)c3C)nn2)CC1	678
COc1ncc(C(=O)NCc2ccc(F)c(Cl)c2)cn1	756
COc1ccc(S(=O)(=O)N2CC(C(=O)NC3CCCC3)Oc3cc(C)ccc32)cc1 (stereo not drawn)	1100
Cn1c(C2CCN(S(=O)(=O)c3ccc(F)c(Cl)c3)CC2)cc(=O)n2nccc12	722
Cc1ccccc1S(=O)(=O)N1CCC2(CC1)NCCN=C2NCc1ccc(Cl)cc1	741
COc1ccc(C)cc1NC(=O)C1CCN(S(=O)(=O)c2ccc3c(c2)NC(=O)C(C)O3)CC1 (stereo not drawn)	788
CC(=O)N1CCc2sc(C(=O)N3CCN(c4ccccc4)CC3)cc2C1	732
C=CCN(C)C(=O)c1cnn2c3c(cnc12)CCCCCC3	827
O=C(NCCNC(=O)c1cccc(Cl)c1)c1ccc(NC(=O)C2CC2)cc1	667
O=C(NC1CCCCCCC1)C1CCN(C(=O)c2ncn3c2COC(c2ccccc2)C3)CC1 (stereo not drawn)	885
O=C(Nc1cc(-c2ccccn2)no1)c1ccoc1	713
Cc1nc([N+](=O)[O-])c(N2CCCC2)n1Cc1ccccc1	817
O=C(NCCc1csc(-c2ccccc2)n1)C1CCN(C(=O)c2ccc(F)c(F)c2)CC1	816
CN1CCCCc2cc(C(=O)NCCN(C)C3CCCCC3)sc21	687
CCN1c2ccc(F)cc2C(=O)NC12CCN(C(=O)c1cc(OC)cc(OC)c1)CC2	782
c1ccc2sc(N3CCN(Cc4ccc5c(c4)OCO5)CC3)nc2c1	731
COc1ccc(-c2nc(N3CCSCC3)ncc2C(=O)O)cc1	854
O=C(N1CCN(S(=O)(=O)c2cccnc2)CC1)N1C[C@H]2C[C@H](C1)[C@H]1CCCC(=O)N1C2	629
O=C(C1=CN(c2ccc(Br)cc2)c2cc(F)ccc2S1(=O)=O)N1CCOCC1	826
CCc1cccc(NC(=O)CSc2cc(N3CCN(c4ccc(OC)cc4)CC3)ncn2)c1	1040
CCCCc1nnc2sc(COc3ccc(C)c(C)c3)nn12	1120
